Test results reported in patent US20230276804A1, “A PESTICIDALLY ACTIVE MIXTURE COMPRISING PYRAZOLOPYRIDINE ANTHRANILAMIDE COMPOUND, OXIDES OR SALTS THEREOF” (priority 2020, published 2023).

Assays:
Type in all cases: in vivo
Spodoptera litura = test: Diet incorporation method against Spodoptera litura (Example B); conditions: single compound, 96 h
Protocol: The diet incorporation method was used, in which semi-synthetic diet was incorporated into the test solution consisting either of the single compound or respective compound combinations, when the temperature was approximately 50° C. in the bioassay containers, then stirred thoroughly for proper mixing and allowed to cool for 30 min. The solidified diet was cut into equal pieces, and then each piece was transferred into one cell of the bio-assay trays. A single starved third instar larva was released into each of these cells of the bio-assay trays and the tray was covered with a lid. The bio-assay trays were kept under laboratory conditions at a temperature of 25° C. and relative humidity of 70%. Observations on dead, moribund and live larvae were recorded 96 h after the release. Percent mortality was calculated by combining dead and moribund larvae and comparing the result with the one of the untreated control. The results are shown for the compound of formula (I-III) in Table B.

Alternaria solani = test: Preventive glasshouse test against Alternaria solani in tomato (Example G); conditions: single compound
Protocol: (§1) The single compounds or respective compound combinations were dissolved in 2% dimethyl sulfoxide/acetone and then mixed with water containing emulsifier to a calibrated spray volume of 50 mL. The test solutions were poured into spray bottles for further applications.
(§2) To test the preventive activity, healthy young tomato plants, raised in the greenhouse, were sprayed with the active compound preparation at the stated application rates inside the spray cabinets using hollow cone nozzles. One day after treatment, the plants were inoculated with a spore suspension containing 0.24×10^6 Alternaria solani inoculum and 2% Malt. The inoculated plants were then kept in a greenhouse chamber at a temperature of 22-24° C. and 90-95% relative humidity for disease expression.
(§3) A visual assessment of the performance of the single compounds or compound combinations was carried out by rating the disease severity (0-100% scale) on treated plants 3, 7, 10 and 15 days after application. Efficacy (% control) of the single compounds and mixtures was calculated by comparing the disease rating in the treatment with the one of the untreated control. The compounds were also assessed for their plant compatibility by recording symptoms like necrosis, chlorosis and stunting. The results have been described for the compound of formula (I-III) in Table G.

Phakopsora pachyrhizi = test: Preventive glasshouse test against Phakopsora pachyrhizi in soybean (Example H); conditions: single compound
Protocol: The single compounds or the respective compound combinations were dissolved in 2% dimethyl sulfoxide/acetone and then mixed with water containing an emulsifier to a calibrated spray volume of 50 ml. The test solutions were poured into spray bottles for further applications.
as §2, with “activity of compounds,” for “activity,”, “Soybean” for “tomato”, “a” for “a spore”, “2×10^5 Phakopsora pachyrhizi conidia.” for “0.24×10^6 Alternaria solani inoculum and 2% Malt.”, “80-90%” for “90-95%”
A visual assessment of the performance of the single compounds and respective compound combinations was carried out by rating the disease severity (0-100% scale) on treated plants 3, 7, 10 and 15 days after application. Efficacy (% control) of the compounds was calculated by comparing the disease rating in the treatment with the one of the untreated control. The compounds were also assessed for their plant compatibility by recording symptoms like necrosis, chlorosis and stunting. The results have been described for the compound of formula (I-III) in Table H.

Erysiphe cichoracearum = test: Preventive glasshouse test against Erysiphe cichoracearum in cucumber (Example K); conditions: single compound
Protocol: The single compounds or the respective compound combinations were dissolved in 2% dimethyl sulfoxide/acetone and then mixed with water containing emulsifier to a calibrated spray volume of 50 mL. The test solutions were poured into spray bottles for further applications.
as §2, with “activity of compounds,” for “activity,”, “cucumber” for “tomato”, “conidial” for “spore”, “2×10^5 Erysiphe cichoracearum inoculum.” for “0.24×10^6 Alternaria solani inoculum and 2% Malt.”, “50-60%” for “90-95%”
A visual assessment of the performance of the compounds and the respective compound combinations was carried out by rating the disease severity (0-100% scale) on treated plants 3, 7, 10 and 15 days after application. Efficacy (% control) of the single compounds or compound combinations was calculated by comparing the disease rating in the treatment with the one of the untreated control. The compounds were also assessed for their plant compatibility by recording symptoms like necrosis, chlorosis and stunting. The results have been described for the compound of formula (I-III) in Table K.

Helicoverpa armigera = test: Diet incorporation method against Helicoverpa armigera (Example A); conditions: single compound, 96 h
Protocol: The diet incorporation method was used, in which semi-synthetic diet was incorporated into the test solutions consisting either of the single compounds or respective compound combinations, when the temperature was approximately 50° C. in the bio-assay containers, then stirred thoroughly for proper mixing and allowed to cool for 30 min. The solidified diet was cut into equal pieces, and then each piece was transferred into one cell of a bio-assay tray. A single starved third instar larva was released into each of these cells of the bio-assay trays and the tray was covered with a lid. The bio-assay trays were kept under laboratory conditions at a temperature of 25° C. and relative humidity of 70%. Observations on dead, moribund and live larvae were recorded 96 h after the release of the larvae. Percent mortality was calculated by combining dead and moribund larvae and comparing the result to the one of the untreated control. The results are shown for the compound of formula (I-III) in Table A.

Septoria nodorum = test: Preventive glasshouse test against Parastagonospora nodorum/Septoria nodorum/Stagnospora nodorum in wheat (Example J); conditions: single compound
Protocol: as §1
To test the preventive activity of compounds, healthy young wheat plants, raised in the greenhouse, were sprayed with the active compound preparation at the stated application rates inside the spray cabinets using hollow cone nozzles. One day after treatment, the plants were inoculated with a spore suspension containing 2.8×10^6 Stagnospora nodorum inoculum.
The inoculated plants were then kept in a greenhouse chamber at 22-25° C. temperature and 90-100% relative humidity for disease expression.
as §3, with “J.” for “G.”

Pyricularia oryzae = conditions: single compound, 0.05 ppm, preventive, rice
[1] = Spodoptera litura, 100 ppm, read-out: Observed Efficacy (%)

Structure (SMILES) | pest or weed control at 100 ppm (Spodoptera litura; [1]) | Observed Efficacy (%) (Alternaria solani; 0.05 ppm) | Observed Efficacy (%) (Alternaria solani; 0.1 ppm) | Observed Efficacy (%) (Erysiphe cichoracearum; Conc. 0.05 ppm) | Observed Efficacy (%) (Spodoptera litura; 100 ppm) | Observed Efficacy (%) (Spodoptera litura; 200 ppm) | Observed Efficacy (%) (Spodoptera litura; 500 ppm) | Observed Efficacy (%) (Helicoverpa armigera; 100 ppm) | other results
COC(=O)N(OC)c1ccccc1COc1ccn(-c2ccc(Cl)cc2)n1 [Pyraclostrobin] | 12.5% | 26% | 26% | 29% | – | – | – | – | pest or weed control at 200 ppm (Spodoptera litura; Spodoptera litura, 200 ppm, read-out: Observed Efficacy (%)): 12.5%; pest or weed control at 500 ppm (Spodoptera litura; Spodoptera litura, 500 ppm, read-out: Observed Efficacy (%)): 12.5%; Observed Efficacy (%) (Phakopsora pachyrhizi; 0.05 ppm): 39%; pest or weed control at 100 ppm (Helicoverpa armigera; Helicoverpa armigera, 100 ppm, read-out: Observed Efficacy (%)): 0%
O=C(NCCc1ncc(C(F)(F)F)cc1Cl)c1ccccc1C(F)(F)F [Fluopyram] | 0% | – | – | – | – | – | – | – | Observed Efficacy (%) (Alternaria solani; 10 ppm): 67%; Observed Efficacy (%) (Septoria nodorum; 10 ppm): 25%; pest or weed control at 50 ppm (Helicoverpa armigera; Helicoverpa armigera, 50 ppm, read-out: Observed Efficacy (%)): 0%
Cn1cc(C(=O)Nc2ccccc2-c2cc(F)c(F)c(F)c2)c(C(F)F)n1 [Fluxapyroxad] | – | 14% | 26% | 29% | 0% | 0% | 0% | – | Observed Efficacy (%) (Septoria nodorum; 0.05 ppm): 12%; Observed Efficacy (%) (Septoria nodorum; 0.1 ppm): 29%
N#Cc1ccccc1NC(=O)c1snc(Cl)c1Cl [Isotianil] | – | – | – | – | 0% | 0% | – | 0% | Observed Efficacy (%) (Phakopsora pachyrhizi; 10.0 ppm): 31%; Observed Efficacy (%) (Phakopsora pachyrhizi; 50.0 ppm): 41%; Observed Efficacy (%) (Erysiphe cichoracearum; Conc. 10 ppm): 51%; Observed Efficacy (%) (Erysiphe cichoracearum; Conc. 50 ppm): 57%; Observed Efficacy (%) (Helicoverpa armigera; 200 ppm): 25%
CO/C=C(/C(=O)OC)c1ccccc1Oc1cc(Oc2ccccc2C#N)ncn1 [Azoxystrobin] | – | 26% | 40% | 26% | 0% | – | 0% | 0% | Observed Efficacy (%) (Erysiphe cichoracearum; Conc. 0.1 ppm): 43%; Observed Efficacy (%) (Pyricularia oryzae): 30%; Observed Efficacy (%) (Helicoverpa armigera; 500 ppm): 0%
